Test [1] deals with peridural space / spinal roots of dogs (digital pain, scrotal pain, weight support). Type of test: in vivo, Mature male beagles.
In test [2] the test system is sheep (anal, vulv.-scrotal and digital pain). Type of test: in vivo. The conditions noted are these: Compound C alone 1%.
The test system of test [3] is rat sciatic nerve. Type of test: in vivo, Female Charles River rats.
Test [4] has as its system inward initial sodium current. The note with it: voltage-clamped giant axon; cited from earlier work.
For test [5], the system named is outward potassium current. The note with it: voltage-clamped giant axon; cited from earlier work.
Setting [6] is: alone: S 0.75%, T 1%, bupivicaine 0.5%, epinephrine 1:100,000, 5 ml.
[7] abbreviates: compound alone 1.0%, no vasoconstrictor.
Where [8] appears, read: compound alone 0.5%, no vasoconstrictor.
The mark [9] stands for this setting: local anesthetic alone: lidocaine 2.0%, dibucaine 0.125%, procaine 2.0%, no epinephrine.
Setting [10] is: local anesthetic alone: lidocaine 2.0%, dibucaine 0.125%, procaine 2.0%, no epinephrine, approximate.
Where [11] appears, read: local anesthetic alone 0.25%, no vasoconstrictor.
Where [12] appears, read: 5 ml, epinephrine 1:100,000, lidocaine 2%.
[13] abbreviates: 5 ml, epinephrine 1:100,000, lidocaine 2%, saxitoxin 4 μg/ml.
[14] abbreviates: 1:100,000 epinephrine, procaine 1%, saxitoxin 1 μg/ml.

Values joined by “and” are separate entries in the source; they are usually repeats but may differ in a detail not shown here. Equal values may be shown once. Read-outs that look alike come from different tables or passages of the source.

We go through 17 molecules from patent US3957996A (priority 1973, dated 1976).

For the molecule `CCCCN1CCCCC1C(=O)Nc1c(C)cccc1C` (stereo not shown) [Bupivicaine, bupivacaine], in test [1] (setting [6]), the “Duration of block of Digital Pain” value lay in the range of 232 to 269 min; the “Duration of block of Scrotal Pain” value was 94 min and 139 min. In addition, in test [1] (alone: S 0.75%, T 1%, bupivicaine 0.5%, epinephrine 1:100,000, 5 ml, listed as bupivicaine), the “Duration of block of Scrotal Pain” value is “about 94 min”.

Consider `CCCN(CC(=O)Nc1c(C)cccc1C)C(C)(C)CC` [Compound C, 2-(N-n-Propyl-tert. amylamino)-2',6'-acetoxylidide], for which, in test [2], the “Duration of block of Digital Pain” value fell in the range of 45 to 60 min and the Onset time lay within 5 to 10 min. In test [1] (C alone 1%, 10 ml, epinephrine 1:100,000, 2 animals), the “Duration of block of Scrotal Pain” value was 192 min and 251 min.

As to `Cc1cccc(C)c1NC(=O)CNC1CCC1` [Compound K, 2-Cyclobutylamino-2',6'-acetoxylidide], the Frequency in test [3] (setting [7]) is recorded as 6/6.

Turning to `CCC(C)N(CC)CC(=O)Nc1c(C)cccc1C` (stereo not shown) [Compound P, 2-(N-Ethyl-sec. butylamino)-2',6'-acetoxylidide], in test [3] (Example 5, STX 2 μg/ml in combinations), the “Frequency (in words)” value is reported as “poor”. In addition, in test [3] (setting [8]), the “Duration, mean ± S.D.” value was 45 min and the Frequency is 2/6.

Regarding `CCCCOc1cc(C(=O)NCCN(CC)CC)c2ccccc2n1` [Dibucaine, dibucaine], in test [3] (setting [9]), the “Duration of complete block, mean ± standard deviation” value stood at 170 ± 33 min and the “Frequency of complete block (C)” value is 5/5. In test [3] (setting [10]), the Onset was 4 min.

Take `CCCOc1ccc(C(=O)CCN2CCCCC2)cc1` [Falicain, falicain]: in test [3] (setting [11]), the “Duration, mean ± S.D.” value was found to be 94 ± 21 min and the Frequency is on record as 5/5. The “Duration, mean ± S.D.” value in test [3] (local anesthetic alone 0.25%, no vasoconstrictor, listed as falicain) was “about 94 min”.

For the molecule `Cc1cccc(C)c1NC(=O)CN(C)C` [H, 2-Dimethylamino-2'-6'-acetoxylidide], the Frequency in test [3] (setting [8]) is listed as 5/6; in test [3] (setting [7]) it was 6/6. Also, the “Duration, mean ± S.D.” value in test [3] (setting [7]) stood at 76 ± 12 min.

In the case of `CCNCC(=O)Nc1c(C)cccc1C` [J, 2-Ethylamino-2',6'-acetoxylidide], in test [3] (setting [7]), the Frequency is reported as 6/6.

With `CCC(C)(C)NCC(=O)Nc1c(C)cccc1C` [L, 2-tert. Amylamino-2',6'-acetoxylidide], the Frequency in test [3] (setting [8]) is given as 6/6. Besides, in test [3] (setting [7]), the “Duration, mean ± S.D.” value was 101 ± 8 min and the Frequency was 6/6.

As to `CCN(CC)CC(=O)Nc1c(C)cccc1C` [Lidocaine, lidocaine], in test [3] (setting [9]), the “Duration of complete block, mean ± standard deviation” value came to 141 ± 28 min and the “Frequency of complete block (C)” value is 5/5. In test [3] (setting [10]), this molecule had an Onset of 1 min. In addition, in test [1] (setting [12]), the “Duration: mean, Weight Support” value is 137 min and the “Duration: range, Weight Support” value was 108 to 162 min. For the same molecule, in test [1] (setting [13]), the “Duration: mean, Digital Pain” value was 127 min; the “Duration: mean, Scrotal Pain” value came out at 111 min; the “Duration: range, Digital Pain” value was 72 to 162 min; the “Duration: range, Scrotal Pain” value was 62 to 152 min. For the same molecule, in test [1] (setting [13]), the “Onset: mean, Digital Pain” value was 7 min; the “Onset: mean, Scrotal Pain” value is 8 min; the “Onset: mean, Weight Support” value was 5 min; the “Onset: range, Digital Pain” value is 5 to 13 min. Further, in test [1] (setting [13]), the “Onset: range, Scrotal Pain” value fell in the range of 5 to 13 min and the “Onset: range, Weight Support” value lay in the range of 3 to 6 min. For the same molecule, in test [1] (Table III footnote), the “Duration (salient points, in words)” value was “short” and the “Frequency (salient points, in words)” value is listed as “good”.

With `CCCCN(C)CC(=O)Nc1c(C)cccc1C` [M, 2-(N-Methyl-n-butylamino)-2',6'-acetoxylidide], the Frequency in test [3] (setting [7]) is listed as 5/6.

In the case of `CCCCOc1ccc(OCCCN2CCOCC2)cc1` [Pramoxine, pramoxine], in test [3] (Example 5, STX 2 μg/ml or pramoxine 0.25% alone), the “Anesthetic effect (in words)” value was “no anesthetic effect whatever was observed”. In test [3] (setting [11]), the “Duration, mean ± S.D.” value amounted to 0 min and the Frequency is reported as 0/5.

Regarding `CCN(CC)CCOC(=O)c1ccc(N)cc1` [Procaine, procaine], the “Effect on inward (initial) sodium current (in words)” value in test [4] was “reduce”. In addition, the “Effect on outward potassium current (in words)” value in test [5] is on record as “reduce”. In test [3] (setting [14]), the “Duration, mean ± standard deviation” value was found to be 104 ± 15 min; the Frequency amounted to 100%; the Onset was determined as 2 min. In test [3] (setting [9]), the “Duration of complete block, mean ± standard deviation” value was found to be 99 ± 8 min and the “Frequency of complete block (C)” value is reported as 5/5. For the same molecule, in test [3] (setting [10]), the Onset came to 1 min.

With `Cc1cccc(C)c1NC(=O)C(C)N` (stereo not shown) [Q, 2-Amino-2',6'-propionoxylidide], the Frequency in test [3] (setting [8]) is on record as 4/6. Besides, in test [3] (setting [7]), the “Duration, mean ± S.D.” value was found to be 79 ± 19 min and the Frequency is 5/6.

As for `CCCN(CC)C(CC)C(=O)Nc1c(C)cccc1C` (stereo not shown) [S, 2-(N-Ethyl-n-propylamino)-2',6'-butyroxylidide], in test [1] (setting [6]), the “Duration of block of Digital Pain” value is on record as 151 (77-256) min and the “Duration of block of Scrotal Pain” value is listed as 128 (82-173) min.

In the case of `CCCC(C(=O)Nc1c(C)cccc1C)N(CC)CC` (stereo not shown) [T, 2-Diethylamino-2',6'-valeroxylidide], in test [1] (setting [6]), the “Duration of block of Digital Pain” value is on record as 301 (238-365) min and the “Duration of block of Scrotal Pain” value was 202 (185-218) min.

With `COC(=O)[C@H]1[C@@H](OC(=O)c2ccccc2)C[C@@H]2CC[C@H]1N2C` [cocaine], the “Effect on inward (initial) sodium current (in words)” value in test [4] is listed as “reduce”. The “Effect on outward potassium current (in words)” value in test [5] is recorded as “reduce”.
